Legend:
Type in all cases: in vivo
[1] = system: Italian ryegrass (Lolium multiflorum); test: Test A postemergence, visual injury rating; conditions: 0 is no effect, 100 is complete control
Method in brief: (§1)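 Greenhouse pot test, loam/sand soil. Formulation: non-phytotoxic solvent mix plus surfactant. Pre: directed spray onto soil after sowing. Post: plants at 1–2 leaf, 2–10 cm. Rated visually vs untreated controls at ~10 d, 0 (no effect) to 100 (complete control).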

[2] = system: barnyardgrass (Echinochloa crus-galli); test: Test A postemergence, visual injury rating; conditions: Echinochloa crus-galli, post-emergence, 240 h, 0 is no effect, 100 is complete control, read-out: Barnyardgrass plant response rating (0 to 100 scale)
Method in brief: as §1

[3] = system: blackgrass (Alopecurus myosuroides); test: Test A postemergence, visual injury rating; conditions: Alopecurus myosuroides, post-emergence, 240 h, 0 is no effect, 100 is complete control, read-out: Blackgrass plant response rating (0 to 100 scale)
Method in brief: as §1

corn (Zea mays) = test: Test A postemergence, visual injury rating; conditions: Zea mays, post-emergence, 240 h, 0 is no effect, 100 is complete control, read-out: Corn plant response rating (0 to 100 scale)
Method in brief: as §1

[4] = system: galium (catchweed bedstraw, Galium aparine); test: Test A postemergence, visual injury rating; conditions: Galium, post-emergence, 240 h, 0 is no effect, 100 is complete control, read-out: Galium plant response rating (0 to 100 scale)
Method in brief: as §1

[5] = system: giant foxtail (Setaria faberii); test: Test A postemergence, visual injury rating; conditions: Setaria faberi, post-emergence, 240 h, 0 is no effect, 100 is complete control, read-out: Foxtail, Giant plant response rating (0 to 100 scale)
Method in brief: as §1

kochia (Kochia scoparia) = test: Test A postemergence, visual injury rating; conditions: 0 is no effect, 100 is complete control
Method in brief: as §1

[6] = system: pigweed (Amaranthus retroflexus); test: Test A postemergence, visual injury rating; conditions: 0 is no effect, 100 is complete control
Method in brief: as §1

[7] = system: ragweed (common ragweed, Ambrosia elatior); test: Test A postemergence, visual injury rating; conditions: 0 is no effect, 100 is complete control
Method in brief: as §1

[8] = system: wheat (Triticum aestivum); test: Test A postemergence, visual injury rating; conditions: 0 is no effect, 100 is complete control
Method in brief: as §1

[9] = system: chickweed (common chickweed, Stellaria media); test: Test C postemergence, plant response rating; conditions: Stellaria media, post-emergence
Method in brief: (§2)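 Visual injury score, 0 = no effect, 100 = complete control, assigned against untreated controls after 13 to 15 d in the greenhouse. Compounds were applied in a surfactant-containing non-phytotoxic solvent mix, preemergence to seeded loam/sand or silt loam soil, or postemergence to 1- to 4-leaf plants (2 to 18 cm).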

[10] = system: foxtail, giant (giant foxtail, Setaria faberii); test: Test C postemergence, plant response rating; conditions: Setaria faberi, post-emergence
Method in brief: as §2

[11] = system: lambsquarters (Chenopodium album); test: Test C postemergence, plant response rating; conditions: Chenopodium album, post-emergence
Method in brief: as §2

[12] = system: oat, wild (wild oat Avena fatua); test: Test C postemergence, plant response rating; conditions: Avena fatua, post-emergence
Method in brief: as §2

[13] = system: ragweed (common ragweed, Ambrosia elatior); test: Test C postemergence, plant response rating; conditions: Ambrosia artemisiifolia, post-emergence
Method in brief: as §2

[14] = system: ryegrass, Italian (Italian ryegrass, Lolium multiflorum); test: Test C postemergence, plant response rating; conditions: Lolium multiflorum, post-emergence
Method in brief: as §2

soybean (Glycine max) = test: Test C postemergence, plant response rating; conditions: Glycine max, post-emergence
Method in brief: as §2

[15] = system: velvetleaf (Abutilon theophrasti); test: Test C postemergence, plant response rating; conditions: Abutilon theophrasti, post-emergence
Method in brief: as §2

[16] = system: waterhemp (common waterhemp, Amaranthus rudis); test: Test C postemergence, plant response rating; conditions: for Plant response rating, Waterhemp: scale 0 to 100; for Waterhemp plant response rating: scale 0 to 100 (0 no effect, 100 complete control)
Method in brief: as §2

[17] = 125 g ai/ha, 0 to 100 scale, approximately 10 days
[18] = 62 g ai/ha, scale 0 to 100 (0 no effect, 100 complete control)
[19] = 125 g ai/ha, scale 0 to 100 (0 no effect, 100 complete control)

N#Cc1cccc(Oc2ncc(Cl)cn2)c1CCCCC(F)(F)F [Compound 73, 3-[(5-chloro-2-pyrimidinyl)oxy]-2-(5,5,5-trifluoropentyl)benzonitrile]
Ryegrass, Italian plant response rating [1, 17]: 80 | pest or weed control at 500 g/ha ([1]; Lolium multiflorum, post-emergence, 240 h, 500 g ai/ha, read-out: Ryegrass, Italian plant response rating (0 to 100 scale)): 100% | pest or weed control at 125 g/ha ([2]; 125 g ai/ha): 90% | pest or weed control at 500 g/ha ([2]; 500 g ai/ha): 100% | pest or weed control at 125 g/ha ([3]; 125 g ai/ha): 50% | pest or weed control at 500 g/ha ([3]; 500 g ai/ha): 100% | plant injury at 125 g/ha (corn (Zea mays); 125 g ai/ha): 30% | plant injury at 500 g/ha (corn (Zea mays); 500 g ai/ha): 60% | pest or weed control at 125 g/ha ([4]; 125 g ai/ha): 100% | pest or weed control at 500 g/ha ([4]; 500 g ai/ha): 100% | pest or weed control at 125 g/ha ([5]; 125 g ai/ha): 100% | pest or weed control at 500 g/ha ([5]; 500 g ai/ha): 100% | Kochia plant response rating (kochia (Kochia scoparia); [17]): 100 | pest or weed control at 500 g/ha (kochia (Kochia scoparia); Bassia scoparia, post-emergence, 240 h, 500 g ai/ha, read-out: Kochia plant response rating (0 to 100 scale)): 100% | Pigweed plant response rating [6, 17]: 100 | pest or weed control at 500 g/ha ([6]; Amaranthus retroflexus, post-emergence, 240 h, 500 g ai/ha, read-out: Pigweed plant response rating (0 to 100 scale)): 100% | Ragweed plant response rating [7, 17]: 20 | pest or weed control at 500 g/ha ([7]; Ambrosia artemisiifolia, post-emergence, 240 h, 500 g ai/ha, read-out: Ragweed plant response rating (0 to 100 scale)): 30% | Wheat plant response rating [8, 17]: 20 | plant injury at 500 g/ha ([8]; Triticum aestivum, post-emergence, 240 h, 500 g ai/ha, read-out: Wheat plant response rating (0 to 100 scale)): 90% | pest or weed control at 16 g/ha ([9]; 16 g ai/ha, scale 0 to 100): 80% | pest or weed control at 31 g/ha ([9]; 31 g ai/ha, scale 0 to 100): 80% | pest or weed control at 62 g/ha [9, 18]: 90% | pest or weed control at 125 g/ha [9, 19]: 85% | pest or weed control at 16 g/ha ([10]; 16 g ai/ha, scale 0 to 100): 15% | pest or weed control at 31 g/ha ([10]; 31 g ai/ha, scale 0 to 100): 25% | pest or weed control at 62 g/ha [10, 18]: 20% | pest or weed control at 125 g/ha [10, 19]: 25% | pest or weed control at 16 g/ha ([11]; 16 g ai/ha, scale 0 to 100): 75% | pest or weed control at 31 g/ha ([11]; 31 g ai/ha, scale 0 to 100): 80% | pest or weed control at 62 g/ha [11, 18]: 90% | pest or weed control at 125 g/ha [11, 19]: 98% | pest or weed control at 16 g/ha ([12]; 16 g ai/ha, scale 0 to 100): 5% | pest or weed control at 31 g/ha ([12]; 31 g ai/ha, scale 0 to 100): 5% | pest or weed control at 62 g/ha [12, 18]: 5% | pest or weed control at 125 g/ha [12, 19]: 10% | pest or weed control at 16 g/ha ([13]; 16 g ai/ha, scale 0 to 100): 50% | pest or weed control at 31 g/ha ([13]; 31 g ai/ha, scale 0 to 100): 55% | pest or weed control at 62 g/ha [13, 18]: 60% | pest or weed control at 125 g/ha [13, 19]: 65% | pest or weed control at 16 g/ha ([14]; 16 g ai/ha, scale 0 to 100): 5% | pest or weed control at 31 g/ha ([14]; 31 g ai/ha, scale 0 to 100): 5% | pest or weed control at 62 g/ha [14, 18]: 10% | pest or weed control at 125 g/ha [14, 19]: 20% | plant injury at 16 g/ha (soybean (Glycine max); 16 g ai/ha, scale 0 to 100): 45% | plant injury at 31 g/ha (soybean (Glycine max); 31 g ai/ha, scale 0 to 100): 70% | plant injury at 62 g/ha (soybean (Glycine max); [18]): 75% | plant injury at 125 g/ha (soybean (Glycine max); [19]): 60% | pest or weed control at 16 g/ha ([15]; 16 g ai/ha, scale 0 to 100): 40% | pest or weed control at 31 g/ha ([15]; 31 g ai/ha, scale 0 to 100): 60% | pest or weed control at 62 g/ha ([15]; 62 g ai/ha, scale 0 to 100 (0 no effect, 100 complete control), read-out: Velvetleaf plant response rating): 70% | pest or weed control at 125 g/ha [15, 19]: 75% | Plant response rating, Waterhemp ([16]; 16 g ai/ha): 85 | Plant response rating, Waterhemp ([16]; 31 g ai/ha): 98 | Waterhemp plant response rating ([16]; 62 g ai/ha): 100 | Waterhemp plant response rating ([16]; 125 g ai/ha): 100

— patent US11053204B2, “Pyrimidinyloxy benzene derivatives as herbicides” (FMC Corporation, priority 2015, dated 2021)
